Our source for the IC50 values is patent publication EP4644396A1 (Visionpharma (Nantong) Co., Ltd, priority 2022, dated 2024).

One experiment addresses T1, human TLR7 (Homo sapiens, UniProt Q9NYK1).
T1 sequence (Q9NYK1 27-1049): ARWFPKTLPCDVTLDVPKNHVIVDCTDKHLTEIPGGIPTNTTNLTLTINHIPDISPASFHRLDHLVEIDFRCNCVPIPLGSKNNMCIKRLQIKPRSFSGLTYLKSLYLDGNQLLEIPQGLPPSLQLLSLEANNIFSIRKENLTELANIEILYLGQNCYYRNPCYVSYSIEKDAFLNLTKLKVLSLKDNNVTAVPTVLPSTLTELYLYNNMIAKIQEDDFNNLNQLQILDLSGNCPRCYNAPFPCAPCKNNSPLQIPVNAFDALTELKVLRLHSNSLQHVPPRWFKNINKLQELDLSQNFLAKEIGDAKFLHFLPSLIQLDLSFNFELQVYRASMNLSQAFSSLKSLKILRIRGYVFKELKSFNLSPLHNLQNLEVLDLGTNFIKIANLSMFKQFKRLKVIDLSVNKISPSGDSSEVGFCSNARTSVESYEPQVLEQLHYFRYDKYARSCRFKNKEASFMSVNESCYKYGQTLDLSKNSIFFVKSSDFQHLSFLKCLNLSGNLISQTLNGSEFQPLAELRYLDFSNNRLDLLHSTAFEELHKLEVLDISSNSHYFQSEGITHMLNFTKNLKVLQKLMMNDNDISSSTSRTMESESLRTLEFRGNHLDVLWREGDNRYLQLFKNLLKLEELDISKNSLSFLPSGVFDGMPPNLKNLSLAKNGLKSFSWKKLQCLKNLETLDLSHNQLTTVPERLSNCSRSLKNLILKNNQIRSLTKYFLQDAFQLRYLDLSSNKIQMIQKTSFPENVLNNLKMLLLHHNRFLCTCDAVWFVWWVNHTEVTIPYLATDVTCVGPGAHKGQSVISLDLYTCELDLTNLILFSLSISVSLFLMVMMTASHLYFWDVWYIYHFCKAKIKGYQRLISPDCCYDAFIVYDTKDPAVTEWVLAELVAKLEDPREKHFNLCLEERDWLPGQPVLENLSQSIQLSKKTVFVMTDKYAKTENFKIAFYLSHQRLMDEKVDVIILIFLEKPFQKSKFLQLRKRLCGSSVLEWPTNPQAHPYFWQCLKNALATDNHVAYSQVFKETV
The experiment in a line: HEK-Blue hTLR7 SEAP reporter gene inhibition assay. Type of experiment: cell-based. The method, boiled down: (§1)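 Cells seeded (TLR7 line 80,000, TLR8 line 60,000 per well), compound added at 0.001–36 µM final for 15 min, then agonist at 10 µM final (Gardiquimod for TLR7) for 20 h. SEAP measured with Quanti-Blue; IC50 fitted.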

The next experiment concerns the target T2, human TLR8 (Homo sapiens, UniProt Q9NR97).
T2 construct: expressed in transfected cells
T2 sequence (Q9NR97 27-1041): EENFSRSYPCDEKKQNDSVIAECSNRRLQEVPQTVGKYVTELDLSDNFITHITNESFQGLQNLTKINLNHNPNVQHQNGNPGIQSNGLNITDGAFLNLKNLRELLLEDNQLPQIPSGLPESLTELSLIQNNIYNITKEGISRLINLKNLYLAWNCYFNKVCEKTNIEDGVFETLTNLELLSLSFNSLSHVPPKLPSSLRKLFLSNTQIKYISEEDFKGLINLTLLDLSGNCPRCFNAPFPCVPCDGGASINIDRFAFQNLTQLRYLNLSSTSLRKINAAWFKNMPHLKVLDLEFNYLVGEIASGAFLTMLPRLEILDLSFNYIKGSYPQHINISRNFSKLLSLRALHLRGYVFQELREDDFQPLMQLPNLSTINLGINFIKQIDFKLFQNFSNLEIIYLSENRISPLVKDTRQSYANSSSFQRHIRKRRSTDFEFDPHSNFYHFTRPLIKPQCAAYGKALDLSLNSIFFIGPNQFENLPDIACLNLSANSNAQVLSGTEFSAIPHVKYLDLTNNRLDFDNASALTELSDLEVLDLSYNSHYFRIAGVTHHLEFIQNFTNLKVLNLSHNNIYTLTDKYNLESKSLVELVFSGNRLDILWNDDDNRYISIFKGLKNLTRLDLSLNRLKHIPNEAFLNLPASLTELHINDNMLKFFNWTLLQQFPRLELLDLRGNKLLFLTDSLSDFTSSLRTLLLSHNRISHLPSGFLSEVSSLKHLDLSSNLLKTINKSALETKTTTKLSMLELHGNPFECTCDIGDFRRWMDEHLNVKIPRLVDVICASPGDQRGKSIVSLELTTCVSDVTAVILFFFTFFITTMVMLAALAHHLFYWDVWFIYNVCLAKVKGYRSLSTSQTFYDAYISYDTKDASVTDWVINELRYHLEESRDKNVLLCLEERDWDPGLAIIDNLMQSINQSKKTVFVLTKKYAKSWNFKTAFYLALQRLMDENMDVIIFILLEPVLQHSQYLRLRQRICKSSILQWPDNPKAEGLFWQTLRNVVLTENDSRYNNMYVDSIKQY
The experiment is described as follows: HEK-Blue hTLR8 SEAP reporter gene inhibition assay. Format: cell-based. The method in brief:
as §1

The mark [1] stands for this setting: hTLR7 HEK-Blue cells, TLR7 ligand Gardiquimod 10 µM, 20 hours, SEAP by Quanti-blue, class symbols, read-out: HEK-Blue hTLR7 IC50.
Where [2] appears, read: hTLR8 HEK-Blue cells, TLR8 ligand 10 µM, 20 hours, SEAP by Quanti-blue, class symbols, read-out: HEK-Blue hTLR8 IC50.

SMILES strings stand for the structures. Where two headings read alike, the source gives them in different places. A value given as a limit tells only on which side of the number the result lay.

In the case of `C[C@@H]1CN(c2ccc(C#N)n3ncc(F)c23)Cc2c3c(nn21)CN(CC(=O)N1CCC(F)(F)C1)[C@@H](C)C3` [Example I-152, 4-((4R,9S)-8-(2-(3,3-difluoropyrrolidin-1-yl)-2-oxoethyl)-4,9-dimethyl-3,4,7,8,9,10-hexahydropyrido[3',4':3,4]pyrazolo[1,5-a]pyrazin-2(1H)-yl)-3-fluoropyrazolo[1,5-a]pyridine-7-carbonitrile], the figures for the IC50 on human TLR7 (setting [1]) and on human TLR8 (setting [2]) were below 0.05 µM and above 0.1 µM, respectively.

As to `C[C@@H]1CN(c2ccc(C#N)n3ncc(F)c23)Cc2c3c(nn21)CN(Cc1cn[nH]c1)CC3` [Example I-28, (R)-4-(8-((1H-pyrazol-4-yl)methyl)-4-methyl-3,4,7,8,9,10-hexahydropyrido[3',4':3,4]pyrazolo[1,5-a]pyrazin-2(1H)-yl)-3-fluoropyrazolo[1,5-a]pyridine-7-carbonitrile], the IC50 on human TLR7 (setting [1]) was above 0.05 µM; on human TLR8 (setting [2]), below 0.1 µM.

With `COC(=O)C1(CN2Cc3nn4c(c3C[C@@H]2C)CN(c2ccc(C#N)n3ncc(F)c23)C[C@H]4C)CC1` [Example I-192, Methyl 1-(((4R,9S)-2-(7-cyano-3-fluoropyrazolo [1,5-a]pyridin-4-yl)-4,9-dimethyl-1,2,3,4,9,10-hexahydropyrido[3',4':3,4]pyrazolo[1,5-a]pyrazin-8(7H)-yl)methyl) cyclopropane-1-carboxylate], the IC50 on human TLR7 (setting [1]) was above 0.05 µM; on human TLR8 (setting [2]), below 0.1 µM.

On to `C[C@@H]1CN(c2ccc(C#N)n3ncc(F)c23)Cc2c3c(nn21)CN(C[C@@H](O)CO)[C@@H](C)C3` [Example I-158, 4-((4R,9S)-8-((R)-2,3-dihydroxypropyl)-4,9-dimethyl-3,4,7,8,9,10-hexahydropyrido[3',4':3,4]pyrazolo[1,5-a]pyrazin-2(1H)-yl)-3-fluoropyrazolo[1,5-a]pyridine-7-carbonitrile], for which the IC50 at human TLR7 (setting [1]) is below 0.05 µM; at human TLR8 (setting [2]) it was below 0.1 µM.

As for `C[C@@H]1CN(c2ccc(C#N)n3ncc(F)c23)Cc2c3c(nn21)CC(N)CC3` (single isomer, unassigned) [Example I-20a], the values for the IC50 at human TLR7 (setting [1]) and on human TLR8 (setting [2]) were below 0.05 µM and below 0.1 µM, respectively.

For the molecule `C[C@@H]1CN(c2ccc(C#N)n3ncc(F)c23)Cc2c3c(nn21)CN(Cc1ccn[nH]1)[C@@H](C)C3` [Example I-134, 4-((4R,9S)-8-((1H-pyrazol-5-yl)methyl)-4,9-dimethyl-3,4,7,8,9,10-hexahydropyrido[3',4':3,4]pyrazolo[1,5-a]pyrazin-2(1H)-yl)-3-fluoropyrazolo[1,5-a]pyridine-7-carbonitrile], the IC50 was below 0.05 µM at human TLR7 (read-out: HEK-Blue hTLR7 IC50) and below 0.1 µM at human TLR8 (read-out: HEK-Blue hTLR8 IC50).

Regarding `C[C@H]1NCCc2c1nn1c2CN(c2ccc(C#N)n3ncc(F)c23)C[C@H]1CF` [Example I-87, 3-Fluoro-4-((4S,7R)-4-(fluoromethyl)-7-methyl-3,4,7,8,9,10-hexahydropyrido [3',4':3,4]pyrazolo[1,5-a]pyrazin-2(1H)-yl)pyrazolo[1,5-a]pyridine-7-carbonitrile], the results for the half-inhibitory concentration (IC50) on human TLR7 (setting [1]) and at human TLR8 (setting [2]) were below 0.05 µM and below 0.1 µM, respectively.

As for `C[C@@H]1CN(c2ccc(C#N)c3ncccc23)Cc2c3c(nn21)CN(CC(N)=O)[C@@H](C)C3` [Example I-141, 2-((4R,9S)-2-(8-cyanoquinolin-5-yl)-4,9-dimethyl-1,2,3,4,9,10-hexahydropyrido [3',4':3,4]pyrazolo[1,5-a]pyrazin-8(7H)-yl)acetamide], the results for the IC50 at human TLR7 (setting [1]) and on human TLR8 (setting [2]) were above 0.05 µM and above 0.1 µM, respectively.

For the molecule `C[C@@H]1CN(c2ccc(C#N)n3ncc(F)c23)Cc2c3c(nn21)CN(CCC#N)[C@@H](C)C3` [Example I-129, 4-((4R,9S)-8-(2-cyanoethyl)-4,9-dimethyl-3,4,7,8,9,10-hexahydropyridine[3',4':3,4]pyrazole[1,5-a]pyrazine-2 (1 H)-yl)-3-fluoropyrazole [1,5-a] pyridine-7-nitrile], the IC50 on human TLR7 (HEK-Blue hTLR7 IC50 (µM)) was below 0.05 µM; against human TLR8 (HEK-Blue hTLR8 IC50 (µM)), below 0.1 µM.

Regarding `COCCN1Cc2nn3c(c2C[C@@H]1C)CN(c1ccc(C#N)n2ncc(F)c12)C[C@H]3C` [Example I-125, 3-Fluoro-4-((4R,9S)-8-(2-methoxyethyl)-4,9-dimethyl-3,4,7,8,9,10-hexahydropyridine [3 ', 4 ': 3, 4]pyrazole [1,5-a]pyrazine-2(1H)-yl) pyrazole[1,5-a] pyridine-7-caronitrile], the IC50 at human TLR7 (read-out: HEK-Blue hTLR7 IC50) was below 0.05 µM; on human TLR8 (read-out: HEK-Blue hTLR8 IC50) it was below 0.1 µM.

With `C[C@@H]1CN(c2ccc(C#N)n3ncc(F)c23)Cc2c3c(nn21)CN1C(=O)OC[C@@H]1C3` [Example I-95, 3-Fluoro-4-((8R,12aS)-8-methyl-3-oxo-1,8,9,11,12,12a-hexahydro-3H,5H,10H-oxazolyl [3 ‴,4 ':1'6']pyridine and [3',4':3,4]pyrazole [1,5-a]pyrazine-10-yl) pyrazole [1,5-a]pyridine-7-nitrile], the IC50 at human TLR7 (HEK-Blue hTLR7 IC50 (µM)) was above 0.05 µM; on human TLR8 (HEK-Blue hTLR8 IC50 (µM)) it was above 0.1 µM.

Consider `C[C@@H]1CN(c2ccc(C#N)n3ncc(F)c23)Cc2c3c(nn21)CC(C)(N)CC3` (single isomer, unassigned) [Example I-71b], for which the IC50 on human TLR7 (setting [1]) is above 0.05 µM; at human TLR8 (setting [2]), below 0.1 µM.

On to `C[C@@H]1CN(c2ccc(C#N)n3ncc(F)c23)Cc2c3c(nn21)CN(C(CO)CO)[C@@H](C)C3` [Example I-159, 4-((4R,9S)-8-(1,3-dihydroxypropan-2-yl)-4,9-dimethyl-3,4,7,8,9,10-hexahydropyrido [3',4':3,4]pyrazolo[1,5-a]pyrazin-2(1H)-yl)-3-fluoropyrazolo[1,5-a]pyridine-7-carbonitrile], for which the values for the IC50 at human TLR7 (setting [1]) and on human TLR8 (setting [2]) were above 0.05 µM and above 0.1 µM, respectively.

`C[C@@H]1CN(c2ccc(C#N)n3ncc(F)c23)Cc2c3c(nn21)CNC(C(C)(C)O)C3` (stereo partly drawn) [Example I-74, 3-Fluoro-4-((4R)-9-(2-hydroxypropan-2-yl)-4-methyl-3,4,7,8,9,10-hexahydropyrido [3',4':3,4]pyrazolo[1,5-a]pyrazin-2(1H)-yl)pyrazolo[1,5-a]pyridine-7-carbonitrile]: the IC50 at human TLR7 (setting [1]) is above 0.05 µM; at human TLR8 (setting [2]), above 0.1 µM.

With `C[C@@H]1CN(c2ccc(C#N)n3ncc(F)c23)Cc2c3c(nn21)CN(C1CC(O)C1)[C@@H](C)C3` (stereo partly drawn) [Example I-111, 3-Fluoro-4-((4R, 9S)-8-(3-hydroxycyclobutyl)-4,9-dimethyl-3,4,7,8,9, 10-hexahydropyridine [3 ', 4 ': 3, 4]pyrazole [1,5-a]pyrazine-2 (1 H) -yl) pyrazole [1,5-a] pyridine-7-nitrile], the IC50 is below 0.05 µM on human TLR7 (HEK-Blue hTLR7 IC50 (µM)) and below 0.1 µM on human TLR8 (HEK-Blue hTLR8 IC50 (µM)).
